Assay results from patent publication US6562824B2, “Dihydropyridine soft drugs, and related compositions and methods” (Ortho-McNeil Pharmaceutical, Inc., priority 2000, dated 2003).

target: T1, Calcium Channel (3H-nitrendipine binding site, heart membranes) (Oryctolagus cuniculus, UniProt P15381); experiment: Assay for Inhibition of Nitrendipine Binding (3H-nitrendipine, rabbit heart membranes); settings: Table 1, Formula Ii compounds, 3H-nitrendipine 0.05-0.50 nM, 90 minutes
T1 construct: from tissue; host or cells: rabbit heart membrane preparation
T1 sequence (P15381 whole entry): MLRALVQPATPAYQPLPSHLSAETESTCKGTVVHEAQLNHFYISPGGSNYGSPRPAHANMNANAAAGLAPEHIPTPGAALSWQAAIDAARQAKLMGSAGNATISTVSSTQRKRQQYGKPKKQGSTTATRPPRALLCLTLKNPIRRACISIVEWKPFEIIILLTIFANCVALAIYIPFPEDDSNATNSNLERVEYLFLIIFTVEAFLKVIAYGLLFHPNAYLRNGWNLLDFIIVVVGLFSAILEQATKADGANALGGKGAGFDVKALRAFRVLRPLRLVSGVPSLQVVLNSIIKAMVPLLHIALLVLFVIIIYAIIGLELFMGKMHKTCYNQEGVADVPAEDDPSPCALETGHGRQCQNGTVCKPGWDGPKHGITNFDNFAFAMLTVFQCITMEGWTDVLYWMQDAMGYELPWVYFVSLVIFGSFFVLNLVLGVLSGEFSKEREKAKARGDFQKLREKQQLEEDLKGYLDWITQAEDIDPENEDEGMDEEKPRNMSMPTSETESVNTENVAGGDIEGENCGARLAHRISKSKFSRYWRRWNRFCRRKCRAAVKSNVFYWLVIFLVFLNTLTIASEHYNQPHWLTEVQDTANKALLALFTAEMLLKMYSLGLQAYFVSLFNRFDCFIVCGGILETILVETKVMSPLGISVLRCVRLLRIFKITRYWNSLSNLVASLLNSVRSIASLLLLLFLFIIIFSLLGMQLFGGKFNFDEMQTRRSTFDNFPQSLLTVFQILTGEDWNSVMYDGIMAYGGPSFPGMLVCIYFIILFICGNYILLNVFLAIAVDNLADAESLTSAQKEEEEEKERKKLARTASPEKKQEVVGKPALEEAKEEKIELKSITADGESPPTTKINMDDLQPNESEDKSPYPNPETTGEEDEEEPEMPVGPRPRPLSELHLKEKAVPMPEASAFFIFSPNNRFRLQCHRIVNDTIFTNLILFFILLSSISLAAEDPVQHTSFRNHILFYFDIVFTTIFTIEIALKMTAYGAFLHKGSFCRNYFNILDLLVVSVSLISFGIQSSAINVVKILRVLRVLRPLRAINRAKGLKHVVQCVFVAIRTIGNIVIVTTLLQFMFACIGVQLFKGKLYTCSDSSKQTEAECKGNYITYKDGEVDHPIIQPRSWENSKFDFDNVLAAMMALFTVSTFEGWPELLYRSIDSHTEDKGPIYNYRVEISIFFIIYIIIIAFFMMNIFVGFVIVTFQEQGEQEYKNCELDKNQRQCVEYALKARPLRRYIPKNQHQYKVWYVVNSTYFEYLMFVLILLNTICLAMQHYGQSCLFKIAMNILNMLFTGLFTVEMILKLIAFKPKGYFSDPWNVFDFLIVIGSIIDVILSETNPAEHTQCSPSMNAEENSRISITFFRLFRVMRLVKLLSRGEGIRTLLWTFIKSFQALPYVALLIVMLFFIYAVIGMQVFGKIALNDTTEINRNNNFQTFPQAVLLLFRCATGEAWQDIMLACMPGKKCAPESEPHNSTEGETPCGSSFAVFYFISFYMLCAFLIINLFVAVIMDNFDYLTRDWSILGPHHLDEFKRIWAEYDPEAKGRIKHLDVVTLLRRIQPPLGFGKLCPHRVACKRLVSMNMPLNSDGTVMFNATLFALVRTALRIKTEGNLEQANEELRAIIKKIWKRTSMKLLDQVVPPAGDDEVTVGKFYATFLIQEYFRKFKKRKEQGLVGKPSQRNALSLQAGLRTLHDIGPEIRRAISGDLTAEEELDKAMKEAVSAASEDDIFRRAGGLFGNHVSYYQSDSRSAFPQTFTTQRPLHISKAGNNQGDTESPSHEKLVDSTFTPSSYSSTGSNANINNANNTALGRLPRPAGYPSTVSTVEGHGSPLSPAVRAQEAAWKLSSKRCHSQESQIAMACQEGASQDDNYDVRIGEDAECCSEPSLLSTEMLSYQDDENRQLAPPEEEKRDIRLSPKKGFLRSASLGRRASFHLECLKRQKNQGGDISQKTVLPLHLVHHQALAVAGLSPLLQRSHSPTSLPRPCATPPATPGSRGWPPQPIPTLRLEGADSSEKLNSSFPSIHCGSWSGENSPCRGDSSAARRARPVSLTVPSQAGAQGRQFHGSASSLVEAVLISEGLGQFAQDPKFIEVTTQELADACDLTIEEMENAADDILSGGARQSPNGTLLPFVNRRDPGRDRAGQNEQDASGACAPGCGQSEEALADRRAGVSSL
Description: Female, New Zealand white rabbits (1-2 kg) are sacrificed by cervical dislocation, and the heart is immediately removed, cleaned and chopped into small pieces. The tissue is homogenized in 5× times volume of 0.05M Hepes buffer, pH 7.4. The homogenate is centrifuged at 4000g for 10 minutes, and the supernatant is re-centrifuged at 42,000× g for 90 minutes. The resulting membrane pellet is resuspended (0.7 ml/g weight) in 0.05M Hepes, pH 7.4 and stored at […] until used. Each tube of the binding assay contains ^3H-nitrendipine (0.05-0.50 nM), buffer, membranes (0.10 ml), and test compound in a total volume of 1.0 ml. After 90 minutes at 4≦ C., the bound nitrendipine is separated from the unbound by filtration on Whatman GF/C filters. After rinsing, the filters are dried and counted in a liquid scintillation counter.
Non-specific binding of ^3H-nitrendipine (that amount bound in the presence of excess unlabelled nitrendipine) is subtracted from the total bound to obtain specifically bound radiolabeled nitrendipine. The amount of specifically bound nitrendipine in the presence of a test compound is compared to that amount bound in the absence of a compound. A percent displacement (or inhibition) can then be calculated.

Compared with `CC1=C(C(=O)OCCOC(=O)C(N)CCCCN)C(c2c(F)cccc2Cl)C2=C(CS(=O)(=O)CCS2(=O)=O)N1` (single isomer, unassigned) [Compound 64], `CC1=C(C(=O)OCCOC(=O)C(C)C)C(c2c(F)cccc2Cl)C2=C(CS(=O)(=O)CCS2(=O)=O)N1` (centres unmarked) [Compound 56] is 22-fold lower in IC50: 51 µM for the first, 2.32 µM for the second.

`CC1=C(C(=O)OCCOC(=O)c2ccc(C(F)(F)F)cc2)C(c2c(F)cccc2Cl)C2=C(CS(=O)(=O)CCS2(=O)=O)N1` (centres unmarked) [Compound 11, 5H-[1,4]dithiepino[6,5-b]pyridine-8-carboxylic acid, 9-(2-chloro-6-fluorophenyl)-2,3,6,9-tetrahydro-7-methyl-, 2-[[4-(trifluoromethyl)benzoyl]oxy]ethyl ester, 1,1,4,4-tetraoxide] and `COc1ccc(C(=O)OCCOC(=O)C2=C(C)NC3=C(C2c2c(F)cccc2Cl)S(=O)(=O)CCS(=O)(=O)C3)cc1` (centres unmarked) [Compound 20] are within 1.5-fold of each other in IC50: 0.048 µM for the first, 0.069 µM for the second.

First: CC1=C(C(=O)OCCOC(=O)CCc2ccccc2)C(c2c(F)cccc2Cl)C2=C(CS(=O)(=O)CCS2(=O)=O)N1 (centres unmarked) [Compound 12]
Second: CC1=C(C(=O)OCCOC(=O)C(Cc2ccccc2)N(C)C)C(c2c(F)cccc2Cl)C2=C(CS(=O)(=O)CCS2(=O)=O)N1 (centres unmarked) [Compound 45]
The IC50 of the first is 11-fold lower: 0.048 µM for the first, 0.541 µM for the second.

Compared with `CC1=C(C(=O)OCCOC(=O)c2cccc(C#N)c2)C(c2c(F)cccc2Cl)C2=C(CS(=O)(=O)CCS2(=O)=O)N1` (centres unmarked) [Compound 18], `CC1=C(C(=O)OCCOC(=O)c2cccnc2)C(c2c(F)cccc2Cl)C2=C(CS(=O)(=O)CCS2(=O)=O)N1` (centres unmarked) [Compound 44] is 8.3-fold higher in IC50: 0.061 µM for the first, 0.505 µM for the second. The first is the more potent here.

First: CC1=C(C(=O)OCc2oc(=O)oc2C)C(c2cccc(Cl)c2Cl)C2=C(CS(=O)(=O)CCS2(=O)=O)N1 (centres unmarked) [Compound 21]
Second: CC1=C(C(=O)OC2CCOC2=O)C(c2cccc(Cl)c2Cl)C2=C(CS(=O)(=O)CCS2(=O)=O)N1 (centres unmarked) [Compound 43]
The IC50 of the first is 6.3-fold lower: 0.072 µM for the first, 0.456 µM for the second.

First: CC1=C(C(=O)OCCOC(=O)C(CCCCNC(=O)OCc2ccccc2)NC(=O)OC(C)(C)C)C(c2c(F)cccc2Cl)C2=C(CS(=O)(=O)CCS2(=O)=O)N1 (centres unmarked) [Compound 29]
Second: CC1=C(C(=O)OCCOC(=O)C(NC(=O)OC(C)(C)C)C(C)C)C(c2c(F)cccc2Cl)C2=C(CS(=O)(=O)CCS2(=O)=O)N1 (centres unmarked) [Compound 40]
The IC50 of the first is 2.3-fold lower: 0.175 µM for the first, 0.405 µM for the second.

Going from `CC1=C(C(=O)OCCOC(=O)C(Cc2ccccc2)NC(=O)c2ccccc2)C(c2c(F)cccc2Cl)C2=C(CS(=O)(=O)CCS2(=O)=O)N1` (centres unmarked) [Compound 38] to `CC1=C(C(=O)OCCOC(=O)C2CCOC2=O)C(c2c(F)cccc2Cl)C2=C(CS(=O)(=O)CCS2(=O)=O)N1` (centres unmarked) [Compound 62], the IC50 rises from 0.358 µM to 19.4 µM (54-fold). The first is the more potent here.

With `CC1=C(C(=O)OCCOC(=O)CCN2CCCCC2)C(c2c(F)cccc2Cl)C2=C(CS(=O)(=O)CCS2(=O)=O)N1` (centres unmarked) [Compound 63] the IC50 was 49 µM.

same assay, conditions: Table 2, Formula Ij compounds, 3H-nitrendipine 0.05-0.50 nM, 90 minutes

`CC1=C(C(=O)OCCOC(=O)c2cccc(C#N)c2)C(c2c(F)cccc2Cl)C2=C(CS(=O)(=O)CCCS2(=O)=O)N1` (centres unmarked) [Compound 68, 2H,6H-[1,5]dithiocino[3,2-b]pyridine-9-carboxylic acid, 10-(2-chloro-6-fluorophenyl)-3,4,7,10-tetrahydro-8-methyl-, 2-[(3-cyanobenzoyl)oxy]ethyl ester, 1,1,5,5-tetraoxide] and `CC1=C(C(=O)OCCOC(=O)C2CCCCC2)C(c2c(F)cccc2Cl)C2=C(CS(=O)(=O)CCCS2(=O)=O)N1` (centres unmarked) [Compound 70, 2H,6H-[1,5]dithiocino[3,2-b]pyridine-9-carboxylic acid, 10-(2-chloro-6-fluorophenyl)-3,4,7,10-tetrahydro-8-methyl-, 2-[(cyclohexylcarbonyl)oxy]ethyl ester, 1,1,5,5-tetraoxide] are within 1.5-fold of each other in IC50: 0.049 µM for the first, 0.065 µM for the second.
